For orientation: residual activity means the signal under treatment as a percentage of the control signal.

Assay [1] deals with Neprilysin (Homo sapiens) (UniProt P08473). In words: Activity against NEUTRALENDOP in the Eurofins Panlabs screen (BI) by absorption of electromagnetic radiation. Conditions: Compound concentration 10.0 uM.
The target of assay [2] is ATP-sensitive inward rectifier potassium channel 1 isoform X1 (Mesocricetus auratus) (UniProt A0A1U8CU73). In words: Activity against K+/KATP/HA in the Eurofins Panlabs screen (BI) by Radioactive Assay. The note with it: Compound concentration 10.0 uM.
Sequence of ATP-sensitive inward rectifier potassium channel 1 isoform X1 (Mesocricetus auratus) (A0A1U8CU73 as listed by the source): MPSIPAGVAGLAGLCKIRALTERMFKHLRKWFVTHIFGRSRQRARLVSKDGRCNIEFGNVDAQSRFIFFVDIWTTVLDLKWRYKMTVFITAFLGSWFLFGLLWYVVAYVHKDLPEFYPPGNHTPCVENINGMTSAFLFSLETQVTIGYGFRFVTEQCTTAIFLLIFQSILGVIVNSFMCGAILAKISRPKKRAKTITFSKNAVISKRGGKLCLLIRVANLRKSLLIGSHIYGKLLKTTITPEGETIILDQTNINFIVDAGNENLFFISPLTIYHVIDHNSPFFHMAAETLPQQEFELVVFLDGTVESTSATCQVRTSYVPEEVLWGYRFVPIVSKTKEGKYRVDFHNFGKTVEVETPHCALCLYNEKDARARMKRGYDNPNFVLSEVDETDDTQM

Sequence of Neprilysin (Homo sapiens) (P08473 whole entry, canonical isoform): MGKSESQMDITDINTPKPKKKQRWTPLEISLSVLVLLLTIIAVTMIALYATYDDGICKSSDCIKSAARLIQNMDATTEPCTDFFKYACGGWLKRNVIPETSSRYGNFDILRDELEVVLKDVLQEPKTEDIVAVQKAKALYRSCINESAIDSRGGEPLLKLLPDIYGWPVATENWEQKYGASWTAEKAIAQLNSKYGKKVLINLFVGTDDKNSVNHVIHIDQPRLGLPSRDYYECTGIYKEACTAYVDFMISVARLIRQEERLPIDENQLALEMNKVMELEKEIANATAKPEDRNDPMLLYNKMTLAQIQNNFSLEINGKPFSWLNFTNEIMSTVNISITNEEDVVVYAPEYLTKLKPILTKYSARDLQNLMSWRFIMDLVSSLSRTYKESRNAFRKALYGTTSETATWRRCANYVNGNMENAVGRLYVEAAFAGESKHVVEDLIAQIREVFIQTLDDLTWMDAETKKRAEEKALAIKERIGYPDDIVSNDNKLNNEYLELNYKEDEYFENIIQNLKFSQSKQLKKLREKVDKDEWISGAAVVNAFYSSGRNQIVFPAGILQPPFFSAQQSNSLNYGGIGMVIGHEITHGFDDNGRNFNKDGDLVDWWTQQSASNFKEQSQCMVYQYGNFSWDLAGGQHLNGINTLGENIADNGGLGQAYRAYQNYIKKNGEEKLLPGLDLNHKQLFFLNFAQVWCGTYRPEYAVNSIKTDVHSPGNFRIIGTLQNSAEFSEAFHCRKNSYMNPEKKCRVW

`N=C(N)NCCC[C@@H](NC(=O)C(c1ccccc1)c1ccccc1)C(=O)NCc1ccc(CNC(N)=O)cc1`: the residual activity in assay [1] is 102%; in assay [2] it was 76%.

These data come from ChEMBL document CHEMBL5463723, “Data for DCP probe BIBO3304” (2023).
